Results as given in publication doi:10.1101/2023.11.24.568596v1 (biorxiv, 2023).
One block for each compound: values may come before it.

Columns and labels:
Settings in all cases: binder
CK2a1 = CK2a1 (Homo sapiens, UniProt P68400)
CaMK2b = CaMK2b (Homo sapiens, UniProt Q13554)
CaMK2d = CaMK2d (Homo sapiens, UniProt Q13557)
JNK1 = JNK1 (Homo sapiens, UniProt P45983)
JNK2 = JNK2 (Homo sapiens, UniProt P45984)
MELK = MELK (Homo sapiens, UniProt Q14680)
MRCKa = MRCKa (Homo sapiens, UniProt Q5VT25)
MST4 = MST4 (Homo sapiens, UniProt Q9P289)
OSR1 = OSR1 (Homo sapiens, UniProt O95747)
PAK1 = PAK1 (Homo sapiens, UniProt Q13153)
SLK = SLK (Homo sapiens, UniProt Q9H2G2)
SRC = SRC (Homo sapiens, UniProt P12931)
SRPK1 = SRPK1 (Homo sapiens, UniProt Q96SB4)
TTK = biological target: T1, TTK (Homo sapiens, UniProt P33981)
T1 sequence (P33981 1-857): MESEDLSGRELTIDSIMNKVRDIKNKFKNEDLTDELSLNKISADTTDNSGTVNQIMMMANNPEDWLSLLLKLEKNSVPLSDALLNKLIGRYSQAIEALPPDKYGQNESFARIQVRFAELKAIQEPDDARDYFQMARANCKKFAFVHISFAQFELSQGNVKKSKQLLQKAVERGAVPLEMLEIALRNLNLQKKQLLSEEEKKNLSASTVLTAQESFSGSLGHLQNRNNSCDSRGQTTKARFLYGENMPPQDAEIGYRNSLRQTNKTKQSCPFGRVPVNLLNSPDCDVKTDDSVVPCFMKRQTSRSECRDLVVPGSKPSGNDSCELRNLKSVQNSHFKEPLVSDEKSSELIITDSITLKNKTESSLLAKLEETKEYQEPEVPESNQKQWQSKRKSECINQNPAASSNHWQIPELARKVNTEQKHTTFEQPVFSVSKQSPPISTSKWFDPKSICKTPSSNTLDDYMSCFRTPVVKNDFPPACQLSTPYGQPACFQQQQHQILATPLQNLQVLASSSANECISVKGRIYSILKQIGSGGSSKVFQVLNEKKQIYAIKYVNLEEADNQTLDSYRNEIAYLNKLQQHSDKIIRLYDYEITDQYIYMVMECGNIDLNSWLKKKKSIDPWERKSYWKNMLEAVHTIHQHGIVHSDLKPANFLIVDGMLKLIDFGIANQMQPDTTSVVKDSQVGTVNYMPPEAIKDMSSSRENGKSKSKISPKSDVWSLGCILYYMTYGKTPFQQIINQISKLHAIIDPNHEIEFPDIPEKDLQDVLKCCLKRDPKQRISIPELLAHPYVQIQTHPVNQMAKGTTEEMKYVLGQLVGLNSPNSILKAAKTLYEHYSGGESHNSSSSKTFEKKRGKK

VRK1 = biological target: T2, VRK1 (Homo sapiens, UniProt Q99986)
T2 sequence (Q99986 1-396): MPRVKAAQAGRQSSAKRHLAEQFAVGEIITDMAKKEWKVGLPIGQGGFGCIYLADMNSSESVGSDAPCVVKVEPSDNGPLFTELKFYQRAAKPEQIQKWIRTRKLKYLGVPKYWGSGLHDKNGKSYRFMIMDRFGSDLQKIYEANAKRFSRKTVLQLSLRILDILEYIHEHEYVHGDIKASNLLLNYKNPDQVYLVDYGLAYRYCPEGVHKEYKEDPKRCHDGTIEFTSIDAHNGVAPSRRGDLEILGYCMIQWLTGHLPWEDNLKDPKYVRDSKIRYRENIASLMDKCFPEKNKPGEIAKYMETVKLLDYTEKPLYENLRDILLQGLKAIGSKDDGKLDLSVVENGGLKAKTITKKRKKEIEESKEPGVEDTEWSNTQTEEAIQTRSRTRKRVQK

MRCKa, sequence (Q5VT25 whole entry): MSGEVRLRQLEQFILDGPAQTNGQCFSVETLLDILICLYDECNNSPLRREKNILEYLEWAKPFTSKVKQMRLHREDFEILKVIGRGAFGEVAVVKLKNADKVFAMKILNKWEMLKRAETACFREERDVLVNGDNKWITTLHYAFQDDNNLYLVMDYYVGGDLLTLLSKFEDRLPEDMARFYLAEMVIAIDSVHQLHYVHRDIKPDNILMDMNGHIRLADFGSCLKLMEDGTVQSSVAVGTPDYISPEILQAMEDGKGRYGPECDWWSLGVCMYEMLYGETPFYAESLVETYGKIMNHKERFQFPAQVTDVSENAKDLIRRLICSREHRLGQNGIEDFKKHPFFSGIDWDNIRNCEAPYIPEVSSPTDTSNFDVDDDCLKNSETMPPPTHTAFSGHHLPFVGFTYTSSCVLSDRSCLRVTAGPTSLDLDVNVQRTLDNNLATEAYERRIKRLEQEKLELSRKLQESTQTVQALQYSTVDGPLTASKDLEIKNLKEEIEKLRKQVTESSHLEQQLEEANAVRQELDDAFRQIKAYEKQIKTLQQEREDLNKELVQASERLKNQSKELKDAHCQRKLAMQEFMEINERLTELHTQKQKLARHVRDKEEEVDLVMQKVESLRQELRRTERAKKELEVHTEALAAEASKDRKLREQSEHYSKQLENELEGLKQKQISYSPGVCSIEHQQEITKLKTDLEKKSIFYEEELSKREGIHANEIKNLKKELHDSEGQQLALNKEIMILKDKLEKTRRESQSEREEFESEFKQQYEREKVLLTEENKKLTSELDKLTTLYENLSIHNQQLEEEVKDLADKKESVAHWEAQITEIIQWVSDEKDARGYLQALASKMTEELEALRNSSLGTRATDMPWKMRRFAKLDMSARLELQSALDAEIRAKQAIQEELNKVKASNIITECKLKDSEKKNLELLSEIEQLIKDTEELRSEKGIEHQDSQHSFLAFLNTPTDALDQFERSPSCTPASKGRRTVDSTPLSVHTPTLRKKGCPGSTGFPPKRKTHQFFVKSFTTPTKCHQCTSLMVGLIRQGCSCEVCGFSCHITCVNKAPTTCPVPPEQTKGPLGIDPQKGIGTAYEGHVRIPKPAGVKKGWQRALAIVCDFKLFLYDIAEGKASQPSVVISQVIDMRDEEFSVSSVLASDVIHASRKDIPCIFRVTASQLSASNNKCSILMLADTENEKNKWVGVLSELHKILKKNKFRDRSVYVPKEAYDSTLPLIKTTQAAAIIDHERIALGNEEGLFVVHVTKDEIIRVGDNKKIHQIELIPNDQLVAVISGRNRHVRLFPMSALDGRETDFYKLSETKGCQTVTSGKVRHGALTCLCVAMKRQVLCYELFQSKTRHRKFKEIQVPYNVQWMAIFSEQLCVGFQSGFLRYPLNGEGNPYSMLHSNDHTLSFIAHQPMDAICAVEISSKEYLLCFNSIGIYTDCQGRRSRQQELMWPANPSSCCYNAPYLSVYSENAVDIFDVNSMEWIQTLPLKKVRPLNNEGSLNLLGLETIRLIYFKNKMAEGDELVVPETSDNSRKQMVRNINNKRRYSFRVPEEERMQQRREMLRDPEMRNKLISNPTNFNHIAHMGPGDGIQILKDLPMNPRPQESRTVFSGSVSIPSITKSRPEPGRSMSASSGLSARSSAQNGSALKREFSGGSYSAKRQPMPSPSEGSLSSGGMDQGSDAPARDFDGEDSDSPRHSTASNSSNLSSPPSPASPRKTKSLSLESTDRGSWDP
CaMK2d, sequence (Q13557 whole entry): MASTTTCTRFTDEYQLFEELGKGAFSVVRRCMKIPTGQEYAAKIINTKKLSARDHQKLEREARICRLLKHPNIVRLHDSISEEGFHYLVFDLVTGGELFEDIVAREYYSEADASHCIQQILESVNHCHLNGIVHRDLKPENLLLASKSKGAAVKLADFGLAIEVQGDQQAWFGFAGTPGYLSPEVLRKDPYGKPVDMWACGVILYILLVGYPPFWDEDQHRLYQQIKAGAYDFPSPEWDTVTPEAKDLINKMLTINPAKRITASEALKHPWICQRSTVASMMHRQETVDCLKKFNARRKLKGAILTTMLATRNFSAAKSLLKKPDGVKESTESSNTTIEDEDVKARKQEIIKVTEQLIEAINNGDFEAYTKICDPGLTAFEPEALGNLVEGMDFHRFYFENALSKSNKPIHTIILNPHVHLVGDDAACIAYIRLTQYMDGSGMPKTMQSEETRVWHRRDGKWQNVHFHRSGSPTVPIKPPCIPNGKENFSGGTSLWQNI
SRC, sequence (P12931 whole entry): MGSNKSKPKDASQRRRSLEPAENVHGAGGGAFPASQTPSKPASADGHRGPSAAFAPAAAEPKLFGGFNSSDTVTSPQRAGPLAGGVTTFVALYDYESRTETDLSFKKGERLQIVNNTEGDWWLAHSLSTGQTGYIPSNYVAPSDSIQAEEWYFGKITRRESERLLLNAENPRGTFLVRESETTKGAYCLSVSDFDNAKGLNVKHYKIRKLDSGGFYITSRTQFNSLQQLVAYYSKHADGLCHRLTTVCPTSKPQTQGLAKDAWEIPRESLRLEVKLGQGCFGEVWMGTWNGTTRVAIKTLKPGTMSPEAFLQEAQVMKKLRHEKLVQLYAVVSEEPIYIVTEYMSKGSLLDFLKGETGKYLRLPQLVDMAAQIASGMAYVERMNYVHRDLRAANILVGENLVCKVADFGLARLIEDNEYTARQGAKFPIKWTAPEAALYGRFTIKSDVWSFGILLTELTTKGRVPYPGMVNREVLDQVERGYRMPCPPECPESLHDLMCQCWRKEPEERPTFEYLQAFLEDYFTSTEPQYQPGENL
JNK2, sequence (P45984 whole entry): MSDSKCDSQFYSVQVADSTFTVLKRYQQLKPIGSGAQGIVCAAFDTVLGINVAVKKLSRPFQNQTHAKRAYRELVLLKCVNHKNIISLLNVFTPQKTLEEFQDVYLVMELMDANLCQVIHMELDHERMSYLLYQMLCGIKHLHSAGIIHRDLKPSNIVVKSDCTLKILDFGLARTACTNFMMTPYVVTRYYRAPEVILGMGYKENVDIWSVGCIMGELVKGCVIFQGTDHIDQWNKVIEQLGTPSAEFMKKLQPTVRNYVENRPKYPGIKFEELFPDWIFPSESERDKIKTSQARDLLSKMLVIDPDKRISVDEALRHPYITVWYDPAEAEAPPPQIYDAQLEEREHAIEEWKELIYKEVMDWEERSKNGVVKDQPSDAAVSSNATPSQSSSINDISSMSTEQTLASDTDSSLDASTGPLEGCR
PAK1, sequence (Q13153 whole entry): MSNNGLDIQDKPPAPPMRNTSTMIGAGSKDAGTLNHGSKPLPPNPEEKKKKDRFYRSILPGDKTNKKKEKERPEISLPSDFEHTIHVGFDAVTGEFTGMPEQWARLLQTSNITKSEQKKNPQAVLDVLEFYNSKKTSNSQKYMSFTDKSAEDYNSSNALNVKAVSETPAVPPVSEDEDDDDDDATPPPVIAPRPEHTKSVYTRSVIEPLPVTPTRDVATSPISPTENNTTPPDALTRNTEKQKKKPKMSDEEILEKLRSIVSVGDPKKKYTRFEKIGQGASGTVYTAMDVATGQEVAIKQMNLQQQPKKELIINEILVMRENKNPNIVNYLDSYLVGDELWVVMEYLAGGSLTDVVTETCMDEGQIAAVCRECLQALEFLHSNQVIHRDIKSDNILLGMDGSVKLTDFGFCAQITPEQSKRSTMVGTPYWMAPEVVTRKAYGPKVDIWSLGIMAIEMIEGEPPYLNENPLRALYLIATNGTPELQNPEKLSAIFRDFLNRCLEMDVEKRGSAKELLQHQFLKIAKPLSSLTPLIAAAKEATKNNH
SLK, sequence (Q9H2G2 whole entry): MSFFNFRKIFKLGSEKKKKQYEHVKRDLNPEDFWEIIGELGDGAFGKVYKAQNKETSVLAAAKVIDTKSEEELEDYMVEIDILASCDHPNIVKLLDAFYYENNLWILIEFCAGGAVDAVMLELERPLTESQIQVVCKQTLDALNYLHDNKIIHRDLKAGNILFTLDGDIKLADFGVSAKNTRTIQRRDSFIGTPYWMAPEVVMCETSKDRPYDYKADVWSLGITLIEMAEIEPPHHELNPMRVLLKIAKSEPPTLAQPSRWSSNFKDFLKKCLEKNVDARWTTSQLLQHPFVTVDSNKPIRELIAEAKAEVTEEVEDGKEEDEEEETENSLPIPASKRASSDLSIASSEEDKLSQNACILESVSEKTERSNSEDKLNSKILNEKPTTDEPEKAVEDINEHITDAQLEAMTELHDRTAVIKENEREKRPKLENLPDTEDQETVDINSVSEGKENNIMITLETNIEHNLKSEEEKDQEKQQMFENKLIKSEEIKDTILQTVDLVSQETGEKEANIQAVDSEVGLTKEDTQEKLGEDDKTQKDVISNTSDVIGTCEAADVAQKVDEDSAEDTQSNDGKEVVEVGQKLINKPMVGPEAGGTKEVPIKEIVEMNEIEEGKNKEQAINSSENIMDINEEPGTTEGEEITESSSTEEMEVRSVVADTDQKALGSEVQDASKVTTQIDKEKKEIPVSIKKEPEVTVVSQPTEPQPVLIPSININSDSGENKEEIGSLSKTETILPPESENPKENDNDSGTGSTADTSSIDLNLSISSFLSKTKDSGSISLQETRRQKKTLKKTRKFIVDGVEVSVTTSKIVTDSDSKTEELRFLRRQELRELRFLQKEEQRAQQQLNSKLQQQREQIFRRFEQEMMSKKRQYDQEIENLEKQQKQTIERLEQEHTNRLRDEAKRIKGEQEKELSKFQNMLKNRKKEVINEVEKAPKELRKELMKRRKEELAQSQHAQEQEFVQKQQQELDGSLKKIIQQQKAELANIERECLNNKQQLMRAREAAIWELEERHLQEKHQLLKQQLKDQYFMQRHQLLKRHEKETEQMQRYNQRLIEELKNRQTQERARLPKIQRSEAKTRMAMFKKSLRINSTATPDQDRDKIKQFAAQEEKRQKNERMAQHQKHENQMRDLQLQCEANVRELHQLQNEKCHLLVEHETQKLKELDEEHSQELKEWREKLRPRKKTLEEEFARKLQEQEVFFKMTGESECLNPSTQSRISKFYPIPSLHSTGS

ΔTm MRLW5 (20) (CK2a1): -0.2 °C
ΔTm MRLW5 (20) (CaMK2b): -1.3 °C
ΔTm MRLW5 (20) (CaMK2d): 0.1 °C
ΔTm MRLW5 (20) (JNK1): 4.2 °C
ΔTm MRLW5 (20) (JNK2): 0.3 °C
ΔTm MRLW5 (20) (MELK): 8.0 °C
ΔTm MRLW5 (20) (MRCKa): 1.0 °C
ΔTm MRLW5 (20) (MST4): 11.4 °C
ΔTm MRLW5 (20) (OSR1): 1.6 °C
ΔTm MRLW5 (20) (PAK1): 7.5 °C
ΔTm MRLW5 (20) (SLK): 9.1 °C
ΔTm MRLW5 (20) (SRC): 0.9 °C
ΔTm MRLW5 (20) (SRPK1): -0.2 °C
ΔTm MRLW5 (20) (TTK): 2.7 °C
ΔTm MRLW5 (20) (VRK1): 0.0 °C
SMILES: CNc1ncc2cc(-c3ccc(-c4cccc(C)n4)cc3Cl)c(=O)n(CCCCN)c2n1 [compound 20, MRLW5]

ΔTm MR24 (24) (CK2a1): 0.0 °C
ΔTm MR24 (24) (CaMK2b): -0.8 °C
ΔTm MR24 (24) (CaMK2d): -0.2 °C
ΔTm MR24 (24) (JNK1): 0.7 °C
ΔTm MR24 (24) (JNK2): 0.4 °C
ΔTm MR24 (24) (MELK): 5.5 °C
ΔTm MR24 (24) (MRCKa): -0.7 °C
ΔTm MR24 (24) (MST4): 9.1 °C
ΔTm MR24 (24) (OSR1): -0.5 °C
ΔTm MR24 (24) (PAK1): 6.9 °C
ΔTm MR24 (24) (SLK): 1.9 °C
ΔTm MR24 (24) (SRC): 0.0 °C
ΔTm MR24 (24) (SRPK1): -0.1 °C
ΔTm MR24 (24) (TTK): -3.0 °C
ΔTm MR24 (24) (VRK1): 0.4 °C
SMILES: Cc1cccc(-c2ccc(-c3cc4cnc(NC(CO)CO)nc4n(CCCCN)c3=O)c(Cl)c2)n1 [compound 24, 8-(4-Aminobutyl)-6-(2-chloro-4-(6-methylpyridin-2-yl)phenyl)-2-((1,3-dihydroxypropan-2-yl)amino)pyrido[2,3-d]pyrimidin-7(8H)-one]

ΔTm 23 (CK2a1): -0.4 °C
ΔTm 23 (CaMK2b): 0.2 °C
ΔTm 23 (CaMK2d): -0.2 °C
ΔTm 23 (JNK1): 4.5 °C
ΔTm 23 (JNK2): 1.3 °C
ΔTm 23 (MELK): 10.4 °C
ΔTm 23 (MRCKa): 2.9 °C
ΔTm 23 (MST4): 8.2 °C
ΔTm 23 (OSR1): 2.3 °C
ΔTm 23 (PAK1): 8.9 °C
ΔTm 23 (SLK): 8.3 °C
ΔTm 23 (SRC): 1.2 °C
ΔTm 23 (SRPK1): -0.5 °C
ΔTm 23 (TTK): 3.5 °C
ΔTm 23 (VRK1): 0.5 °C
SMILES: CNc1ncc2cc(-c3ccc(-c4cccc(C)n4)cc3Cl)c(=O)n(C[C@H]3CC[C@H](N)CC3)c2n1 [compound 23, 23]

ΔTm 25 (CK2a1): -0.4 °C
ΔTm 25 (CaMK2b): -0.1 °C
ΔTm 25 (CaMK2d): -0.2 °C
ΔTm 25 (JNK1): 4.5 °C
ΔTm 25 (JNK2): 2.6 °C
ΔTm 25 (MELK): 2.4 °C
ΔTm 25 (MRCKa): 0.0 °C
ΔTm 25 (MST4): 9.6 °C
ΔTm 25 (OSR1): 0.4 °C
ΔTm 25 (PAK1): 8.3 °C
ΔTm 25 (SLK): 5.0 °C
ΔTm 25 (SRC): 1.0 °C
ΔTm 25 (SRPK1): 0.1 °C
ΔTm 25 (TTK): 1.8 °C
ΔTm 25 (VRK1): 0.6 °C
SMILES: Cc1cccc(-c2ccc(-c3cc4cnc(NCCCc5ccc(N)cc5)nc4n(CCCCN)c3=O)c(Cl)c2)n1 [compound 25, 8-(4-Aminobutyl)-2-((3-(4-aminophenyl)propyl)amino)-6-(2-chloro-4-(6-methylpyridin-2-yl)phenyl)pyrido[2,3-d]pyrimidin-7(8H)-one]

ΔTm MR26 (26) (CK2a1): 0.6 °C
ΔTm MR26 (26) (CaMK2b): -0.3 °C
ΔTm MR26 (26) (CaMK2d): -0.1 °C
ΔTm MR26 (26) (JNK1): 0.8 °C
ΔTm MR26 (26) (JNK2): 0.0 °C
ΔTm MR26 (26) (MELK): 5.0 °C
ΔTm MR26 (26) (MRCKa): -0.2 °C
ΔTm MR26 (26) (MST4): 11.2 °C
ΔTm MR26 (26) (OSR1): -0.1 °C
ΔTm MR26 (26) (PAK1): 5.7 °C
ΔTm MR26 (26) (SLK): 2.3 °C
ΔTm MR26 (26) (SRC): 1.4 °C
ΔTm MR26 (26) (SRPK1): 0.1 °C
ΔTm MR26 (26) (TTK): -0.2 °C
ΔTm MR26 (26) (VRK1): 0.4 °C
SMILES: Cc1cccc(-c2ccc(-c3cc4cnc(NCCCN5CCOCC5)nc4n(CCCCN)c3=O)c(Cl)c2)n1 [compound 26, MR26]

ΔTm 22 (CK2a1): -0.6 °C
ΔTm 22 (CaMK2b): -0.9 °C
ΔTm 22 (CaMK2d): 0.0 °C
ΔTm 22 (JNK1): 4.0 °C
ΔTm 22 (JNK2): 0.3 °C
ΔTm 22 (MELK): 8.5 °C
ΔTm 22 (MRCKa): 1.8 °C
ΔTm 22 (MST4): 7.8 °C
ΔTm 22 (OSR1): 0.7 °C
ΔTm 22 (PAK1): 8.6 °C
ΔTm 22 (SLK): 3.9 °C
ΔTm 22 (SRC): 0.6 °C
ΔTm 22 (SRPK1): -0.2 °C
ΔTm 22 (TTK): 3.7 °C
ΔTm 22 (VRK1): -0.7 °C
SMILES: CNc1ncc2cc(-c3ccc(-c4cccc(C)n4)cc3Cl)c(=O)n(CCC3CCNCC3)c2n1 [compound 22, 6-(2-Chloro-4-(6-methylpyridin-2-yl)phenyl)-2-(methylamino)-8-(2-(piperidin-4-yl)ethyl)pyrido[2,3-d]pyrimidin-7(8H)-one]
